Assay results as given in ChEMBL document CHEMBL1201862, “PubChem BioAssay data set” (2004).
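The compound was tested at five concentrations on cells cultured in 96-well plates, with a 48-hour exposure period. Here, GI50 denotes the concentration required for 50% inhibition of growth.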 Calls of active or inactive are those of the source. Cut-off read from the data, not from the text of the source: active = GI50 up to about 1.1 µM and inactive = higher.

Assays:
Experiment in all cases: inhibition of tumour cell growth, NCI panel, 48 h
DU-145 = tested on: DU-145
Hs-578T = tested on: Hs-578T
SK-MEL-5 = tested on: SK-MEL-5
IGROV-1 = tested on: IGROV-1
ACHN = tested on: ACHN
CCRF-CEM = tested on: CCRF-CEM
HCT-116 = tested on: HCT-116
K562 = tested on: K562
CAKI-1 = tested on: CAKI-1
NCI/ADR-RES = tested on: NCI/ADR-RES
T47D = tested on: T47D
NCI-H460 = tested on: NCI-H460
SNB-19 = tested on: SNB-19
A549 = tested on: A549
RXF 393 = tested on: RXF 393
HT-29 = tested on: HT-29
OVCAR-4 = tested on: OVCAR-4
SK-MEL-2 = tested on: SK-MEL-2
SK-OV-3 = tested on: SK-OV-3

Row | SMILES | GI50 (DU-145) | GI50 (Hs-578T) | GI50 (SK-MEL-5) | GI50 (IGROV-1) | GI50 (ACHN) | GI50 (CCRF-CEM) | GI50 (HCT-116) | GI50 (K562) | GI50 (CAKI-1) | GI50 (NCI/ADR-RES) | GI50 (T47D) | GI50 (NCI-H460) | GI50 (SNB-19) | GI50 (A549) | GI50 (RXF 393) | GI50 (HT-29) | GI50 (OVCAR-4) | GI50 (SK-MEL-2) | GI50 (SK-OV-3)
1 | O=c1[nH]nc(-c2ccccc2)n1/N=C/c1cccnc1 | 78.5 µM (inactive) | 37.5 µM (inactive) | 57 µM (inactive) | > 100 µM (inactive) | 63.7 µM (inactive) | 69.5 µM (inactive) | 54.3 µM (inactive) | 40.5 µM (inactive) | 25.1 µM (inactive) | 69.8 µM (inactive) | 31.6 µM (inactive) | 43.8 µM (inactive) | > 100 µM (inactive) | > 100 µM (inactive) | 34.4 µM (inactive) | 93.1 µM (inactive) |  |  | 
2 | CCOC(=O)c1c[nH]c(C(=O)C=[N+]=[N-])c1C1CCN(CC)C1=S (stereo not drawn) | > 100 µM (inactive) | > 100 µM (inactive) | > 100 µM (inactive) | > 100 µM (inactive) | > 100 µM (inactive) |  | > 100 µM (inactive) | > 100 µM (inactive) | > 100 µM (inactive) | > 100 µM (inactive) | > 100 µM (inactive) | 93.3 µM (inactive) | > 100 µM (inactive) | > 100 µM (inactive) | > 100 µM (inactive) | > 100 µM (inactive) | > 100 µM (inactive) | > 100 µM (inactive) | > 100 µM (inactive)
3 | OCN(CO)c1ccc2c(c1)Cc1cc(F)ccc1-2 | 23.2 µM (inactive) | 12 µM (inactive) | 11.2 µM (inactive) | 19.3 µM (inactive) | 17.6 µM (inactive) |  | 39.5 µM (inactive) | 20.9 µM (inactive) | 20 µM (inactive) | 20.2 µM (inactive) | 17.8 µM (inactive) | 24.7 µM (inactive) | 17.9 µM (inactive) | 21.9 µM (inactive) | 24 µM (inactive) | 14.8 µM (inactive) | 17.8 µM (inactive) | 21 µM (inactive) | 25.2 µM (inactive)
4 | COc1ccccc1N1C(=O)C2C3c4ccccc4C(OC(C)=O)(c4ccccc43)C2C1=O (stereo not drawn) | > 100 µM (inactive) | 14.8 µM (inactive) | > 100 µM (inactive) | > 100 µM (inactive) | > 100 µM (inactive) | > 100 µM (inactive) | 57.3 µM (inactive) | > 100 µM (inactive) | > 100 µM (inactive) | > 100 µM (inactive) | > 100 µM (inactive) | > 100 µM (inactive) | 17.1 µM (inactive) | > 100 µM (inactive) | > 100 µM (inactive) | > 100 µM (inactive) | 30.4 µM (inactive) |  | > 100 µM (inactive)
5 | CC(C)NC1(C(N)=O)CCN(Cc2ccccc2)CC1 | > 100 µM (inactive) | > 100 µM (inactive) | > 100 µM (inactive) | > 100 µM (inactive) | > 100 µM (inactive) |  | > 100 µM (inactive) | > 100 µM (inactive) | > 100 µM (inactive) | > 100 µM (inactive) | > 100 µM (inactive) | > 100 µM (inactive) | > 100 µM (inactive) | > 100 µM (inactive) | > 100 µM (inactive) | > 100 µM (inactive) | > 100 µM (inactive) | > 100 µM (inactive) | > 100 µM (inactive)
6 | O=C(O)c1c(O)c2cc(Br)ccc2oc1=O | > 100 µM (inactive) | > 100 µM (inactive) | > 100 µM (inactive) | > 100 µM (inactive) | > 100 µM (inactive) | > 100 µM (inactive) | > 100 µM (inactive) | > 100 µM (inactive) | > 100 µM (inactive) | > 100 µM (inactive) | > 100 µM (inactive) | > 100 µM (inactive) | > 100 µM (inactive) | > 100 µM (inactive) | > 100 µM (inactive) | > 100 µM (inactive) | > 100 µM (inactive) | > 100 µM (inactive) | 
7 | CC1=NC2=Nc3nc(C)cc[n+]3CN2C=C1 | > 100 µM (inactive) | > 100 µM (inactive) | 53.3 µM (inactive) | 39.9 µM (inactive) | > 100 µM (inactive) |  | 38.9 µM (inactive) |  | 0.144 µM (active) | > 100 µM (inactive) | 70 µM (inactive) | 43.2 µM (inactive) | > 100 µM (inactive) | 79.3 µM (inactive) | > 100 µM (inactive) | 31.8 µM (inactive) | > 100 µM (inactive) | > 100 µM (inactive) | > 100 µM (inactive)
8 | NS(=O)(=O)c1ccc(NCc2cccc3c(=O)c4ccc(Cl)cc4oc23)cc1 | 30.3 µM (inactive) | 20 µM (inactive) | 59.4 µM (inactive) | 20.2 µM (inactive) | 28.4 µM (inactive) | 4.75 µM (inactive) | 6.17 µM (inactive) | 12.5 µM (inactive) | 41 µM (inactive) | 32.5 µM (inactive) | 81.3 µM (inactive) |  | 8.07 µM (inactive) | > 86.1 µM (inactive) | 27.1 µM (inactive) | 31.4 µM (inactive) | > 95.9 µM (inactive) | 68.7 µM (inactive) | > 71.8 µM (inactive)
9 | CCNc1cc2oc(=O)cc(C(F)(F)F)c2cc1C | > 100 µM (inactive) | > 100 µM (inactive) | > 100 µM (inactive) | > 100 µM (inactive) | > 100 µM (inactive) |  | > 100 µM (inactive) | > 100 µM (inactive) | > 100 µM (inactive) | > 100 µM (inactive) | > 100 µM (inactive) | > 100 µM (inactive) | > 100 µM (inactive) | > 100 µM (inactive) | > 100 µM (inactive) | > 100 µM (inactive) | > 100 µM (inactive) | > 100 µM (inactive) | > 100 µM (inactive)
10 | O=P(O)(O)C=C=C1CCCCC1 | > 100 µM (inactive) | > 100 µM (inactive) | > 100 µM (inactive) | > 100 µM (inactive) | > 100 µM (inactive) |  | > 100 µM (inactive) | > 100 µM (inactive) | > 100 µM (inactive) | > 100 µM (inactive) | > 100 µM (inactive) | > 100 µM (inactive) | > 100 µM (inactive) | > 100 µM (inactive) | > 100 µM (inactive) | > 100 µM (inactive) | > 100 µM (inactive) | > 100 µM (inactive) | > 100 µM (inactive)
11 | Cc1ccc(C)c(COCCOCn2cc(N3CCOCC3)c(=O)[nH]c2=O)c1 | > 100 µM (inactive) | 54.6 µM (inactive) |  | > 100 µM (inactive) | > 100 µM (inactive) | > 100 µM (inactive) | > 100 µM (inactive) | > 100 µM (inactive) | > 100 µM (inactive) | > 100 µM (inactive) | > 100 µM (inactive) | > 100 µM (inactive) | > 100 µM (inactive) | > 100 µM (inactive) | > 100 µM (inactive) |  |  | > 100 µM (inactive) | > 100 µM (inactive)
